# Reference: US20250311727A1, “SUBSTITUTED 2-AMINOAZINES AND SALTS THEREOF, AND USE THEREOF AS HERBICIDAL ACTIVE SUBSTANCES” (BAYER AKTIENGESELLSCHAFT, priority 2022, published 2025)
# Key:
# Assay type in all cases: in vivo
# Abutilon theophrasti [1] = assay: Post-emergence herbicidal efficacy at 320 g/ha, ABUTH; conditions: rated visually after about 3 weeks vs untreated controls, 100% = plants have died
# Outline: (§1)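 Visual % activity vs untreated controls, ~3 wk after spraying; 100% = plants dead, 0% = like control. Greenhouse pot plants in sandy loam, treated at one-leaf stage (2–3 wk post-sowing). WP/EC in water + 0.5% additive, 600 L/ha spray volume.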
# Alopecurus myosuroides [2] = assay: Post-emergence herbicidal efficacy at 320 g/ha, ALOMY; conditions: rated visually after about 3 weeks vs untreated controls, 100% = plants have died
# Excerpt: (§2) Unwanted plants/weeds: • ABUTH: Abutilon theophrasti • ALOMY: Alopecurus myosuroides • AMARE: Amaranthus retroflexus • DIGSA: Digitaria sanguinalis • ECHCG: Echinochloa crus-galli • KCHSC: Kochia scoparia • LOLRI: Lolium rigidum • MATIN: Matricaria inodora • POAAN: Poa annua • POLCO: Polygonum convolvulus • SETVI: Setaria viridis • STEME: Stellaria media • VERPE: Veronica persica • VIOTR: Viola tricolor A. Post-Emergence Herbicidal Efficacy at 320 g/ha
# (§3) Seeds of mono- and dicotyledonous weed plants were placed in plastic pots in sandy loam soil (doubly sown with in each case one species of mono- or dicotyledonous weed plants per pot), covered with soil and cultivated in a greenhouse under controlled growth conditions. 2 to 3 weeks after sowing, the test plants were treated at the one-leaf stage. The compounds of the invention, formulated in the form of wettable powders (WP) or as emulsion concentrates (EC), were applied to the green parts of the plants as aqueous suspension or emulsion with addition of 0.5% additive at a water application rate equivalent to 600 litres per hectare. After the test plants had been kept in the greenhouse under optimum growth conditions for about 3 weeks, the activity of the preparations was rated visually in comparison to untreated controls.
# (§4) For example, 100% activity=the plants have died, 0% activity=like control plants.
# (§5) Tables A1 to A10 below show the effects of selected compounds of the general formula (I) according to Table 1 on various harmful plants and at an application rate corresponding to 320 g/ha, which were obtained by the trial procedure specified above.
# Amaranthus retroflexus [3] = assay: Post-emergence herbicidal efficacy at 320 g/ha, AMARE; conditions: rated visually after about 3 weeks vs untreated controls, 100% = plants have died
# Outline: as §1
# Echinochloa crus-galli [4] = assay: Post-emergence herbicidal efficacy at 320 g/ha, ECHCG; conditions: rated visually after about 3 weeks vs untreated controls, 100% = plants have died
# Outline: as §1
# Kochia scoparia [5] = assay: Post-emergence herbicidal efficacy at 320 g/ha, KCHSC; conditions: rated visually after about 3 weeks vs untreated controls, 100% = plants have died
# Outline: as §1
# Setaria viridis [6] = assay: Post-emergence herbicidal efficacy at 320 g/ha, SETVI; conditions: rated visually after about 3 weeks vs untreated controls, 100% = plants have died
# Excerpt: as §2, §3, §4, §5
# Stellaria media [7] = assay: Post-emergence herbicidal efficacy at 320 g/ha, STEME; conditions: rated visually after about 3 weeks vs untreated controls, 100% = plants have died
# Outline: as §1
# Veronica persica [8] = assay: Post-emergence herbicidal efficacy at 320 g/ha, VERPE; conditions: rated visually after about 3 weeks vs untreated controls, 100% = plants have died
# Outline: as §1
# Abutilon theophrasti [9] = assay: Post-emergence herbicidal efficacy at 80 g/ha, ABUTH; conditions: rated visually after about 3 weeks vs untreated controls, 100% = plants have died
# Excerpt: as §2
# (§6) Seeds of monocotyledonous and dicotyledonous weeds and crop plants were placed in sandy loam in plastic or organic planting pots, covered with soil and cultivated in a greenhouse under controlled growth conditions. 2 to 3 weeks after sowing, the test plants were treated at the one-leaf stage. The compounds of the invention, formulated in the form of wettable powders (WP) or as emulsion concentrates (EC), were then sprayed onto the green parts of the plants as aqueous suspension or emulsion with addition of 0.5% additive at a water application rate of 600 l/ha (converted). After the test plants had been kept in the greenhouse under optimum growth conditions for about 3 weeks, the activity of the preparations was rated visually in comparison to untreated controls. For example, 100% activity=the plants have died, 0% activity=like control plants.
# (§7) Tables B1 to B11 below show the effects of selected compounds of the general formula (I) according to Table 1 on various harmful plants and an application rate corresponding to 80 g/ha, which were obtained by the experimental procedure mentioned above.
# Alopecurus myosuroides [10] = assay: Post-emergence herbicidal efficacy at 80 g/ha, ALOMY; conditions: rated visually after about 3 weeks vs untreated controls, 100% = plants have died
# Excerpt: as §2, §6, §7
# Amaranthus retroflexus [11] = assay: Post-emergence herbicidal efficacy at 80 g/ha, AMARE; conditions: rated visually after about 3 weeks vs untreated controls, 100% = plants have died
# Outline: (§8)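 Visual damage ratings, 0% (like untreated controls) to 100% (plants dead), were taken about 3 weeks after treatment. Plants were sprayed at the one-leaf stage with WP- or EC-formulated compound in water containing 0.5% additive, 600 l/ha, having been raised in sandy loam in the greenhouse.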
# Veronica persica [12] = assay: Post-emergence herbicidal efficacy at 80 g/ha, VERPE; conditions: rated visually after about 3 weeks vs untreated controls, 100% = plants have died
# Outline: as §8
# Viola tricolor [13] = assay: Post-emergence herbicidal efficacy at 80 g/ha, VIOTR; conditions: rated visually after about 3 weeks vs untreated controls, 100% = plants have died
# Excerpt: as §2, §6, §7
# Abutilon theophrasti [14] = assay: Pre-emergence herbicide efficacy at 320 g/ha, ABUTH; conditions: scored visually after about 3 weeks vs untreated controls, 100% = plants have died
# Excerpt: as §2
# (§9) Seeds of mono- and dicotyledonous weed plants were placed in plastic pots in sandy loam soil (doubly sown with one species each of mono- or dicotyledonous weed plants per pot) and covered with soil. The compounds of the invention, formulated in the form of wettable powders (WP) or as emulsion concentrates (EC), were then applied to the surface of the covering soil as aqueous suspension or emulsion with addition of 0.5% additive at a water application rate of 600 litres per hectare (converted). After the treatment, the pots were placed in a greenhouse and kept under good growth conditions for the test plants. After about 3 weeks, the efficacy of the preparations was scored visually in comparison with untreated controls as percentages.
# as §4
# (§10) Tables C1 to C12 below show the effects of selected compounds of the general formula (I) according to Table 1 on various harmful plants and at an application rate corresponding to 320 g/ha, which were obtained by the trial procedure specified above.
# Alopecurus myosuroides [15] = assay: Pre-emergence herbicide efficacy at 320 g/ha, ALOMY; conditions: scored visually after about 3 weeks vs untreated controls, 100% = plants have died
# Excerpt: as §2, §9, §4, §10
# Amaranthus retroflexus [16] = assay: Pre-emergence herbicide efficacy at 320 g/ha, AMARE; conditions: scored visually after about 3 weeks vs untreated controls, 100% = plants have died
# Outline: (§11)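 Visual percent activity versus untreated controls, read about 3 weeks after treatment, where 100% means dead plants and 0% means control-like growth. Compound (WP or EC, 0.5% additive, 600 L/ha water) was sprayed onto the covering soil over freshly sown weed seeds in sandy loam, then kept in a greenhouse.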
# Digitaria sanguinalis [17] = assay: Pre-emergence herbicide efficacy at 320 g/ha, DIGSA; conditions: scored visually after about 3 weeks vs untreated controls, 100% = plants have died
# Outline: as §11
# Echinochloa crus-galli [18] = assay: Pre-emergence herbicide efficacy at 320 g/ha, ECHCG; conditions: scored visually after about 3 weeks vs untreated controls, 100% = plants have died
# Outline: as §11
# Kochia scoparia [19] = assay: Pre-emergence herbicide efficacy at 320 g/ha, KCHSC; conditions: scored visually after about 3 weeks vs untreated controls, 100% = plants have died
# Outline: as §11
# Poa annua = assay: Pre-emergence herbicide efficacy at 320 g/ha, POAAN; conditions: scored visually after about 3 weeks vs untreated controls, 100% = plants have died
# Outline: as §11
# Setaria viridis [20] = assay: Pre-emergence herbicide efficacy at 320 g/ha, SETVI; conditions: scored visually after about 3 weeks vs untreated controls, 100% = plants have died
# Outline: as §11
# Stellaria media [21] = assay: Pre-emergence herbicide efficacy at 320 g/ha, STEME; conditions: scored visually after about 3 weeks vs untreated controls, 100% = plants have died
# Outline: as §11
# Veronica persica [22] = assay: Pre-emergence herbicide efficacy at 320 g/ha, VERPE; conditions: scored visually after about 3 weeks vs untreated controls, 100% = plants have died
# Outline: as §11
# Amaranthus retroflexus [23] = assay: Pre-emergence herbicide efficacy at 80 g/ha, AMARE; conditions: scored visually after about 3 weeks vs untreated controls, 100% = plants have died
# Outline: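 Pre-emergence soil-surface spray over freshly sown, soil-covered seeds; WP/EC formulation, 0.5% additive, 600 l/ha water volume. Greenhouse, ~3 wk. Readout: visual % efficacy vs untreated (0% = control-like, 100% = dead).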
# Digitaria sanguinalis [24] = assay: Pre-emergence herbicide efficacy at 80 g/ha, DIGSA; conditions: scored visually after about 3 weeks vs untreated controls, 100% = plants have died
# Excerpt: as §2
# (§12) Seeds of monocotyledonous and dicotyledonous weed plants and crop plants were placed in plastic or organic planting pots and covered with soil. The compounds of the invention, formulated in the form of wettable powders (WP) or as emulsion concentrates (EC), were then applied to the surface of the covering soil as aqueous suspension or emulsion with addition of 0.5% additive at a water application rate equivalent to 600 l/ha. After the treatment, the pots were placed in a greenhouse and kept under good growth conditions for the test plants. After about 3 weeks, the efficacy of the preparations was scored visually in comparison with untreated controls as percentages. For example, 100% activity=the plants have died, 0% activity=like control plants.
# (§13) Tables D1 to D12 below show the effects of selected compounds of the general formula (I) according to Table 1 on various harmful plants and an application rate corresponding to 80 g/ha, which were obtained by the experimental procedure mentioned above.
# Polygonum convolvulus = assay: Pre-emergence herbicide efficacy at 80 g/ha, POLCO; conditions: scored visually after about 3 weeks vs untreated controls, 100% = plants have died
# Excerpt: as §2, §12, §13
# Setaria viridis [25] = assay: Pre-emergence herbicide efficacy at 80 g/ha, SETVI
# Excerpt: as §2, §12, §13
# Viola tricolor [26] = assay: Pre-emergence herbicide efficacy at 80 g/ha, VIOTR
# Excerpt: as §2, §12, §13
smiles,measurement,setting,value
Cc1cnc(Nc2cccc(F)c2-c2cc(C(F)F)no2)nc1 [Example 1-36],Post-emergence efficacy at 320 g/ha against ABUTH in %,Abutilon theophrasti [1],100%
same,Post-emergence efficacy at 320 g/ha against ALOMY in %,Alopecurus myosuroides [2],100%
same,Post-emergence efficacy at 320 g/ha against AMARE in %,Amaranthus retroflexus [3],100%
same,Post-emergence efficacy at 320 g/ha against ECHCG in %,Echinochloa crus-galli [4],100%
same,Post-emergence efficacy at 320 g/ha against KCHSC in %,Kochia scoparia [5],100%
same,Post-emergence efficacy at 320 g/ha against SETVI in %,Setaria viridis [6],100%
same,Post-emergence efficacy at 320 g/ha against STEME in %,Stellaria media [7],100%
same,Post-emergence efficacy at 320 g/ha against VERPE in %,Veronica persica [8],100%
same,Post-emergence efficacy at 80 g/ha against ABUTH in %,Abutilon theophrasti [9],100%
same,Post-emergence efficacy at 80 g/ha against ALOMY in %,Alopecurus myosuroides [10],80%
same,Post-emergence efficacy at 80 g/ha against AMARE in %,Amaranthus retroflexus [11],90%
same,Post-emergence efficacy at 80 g/ha against VERPE in %,Veronica persica [12],80%
same,Post-emergence efficacy at 80 g/ha against VIOTR in %,Viola tricolor [13],100%
same,Pre-emergence efficacy at 320 g/ha against ABUTH in %,Abutilon theophrasti [14],100%
same,Pre-emergence efficacy at 320 g/ha against ALOMY in %,Alopecurus myosuroides [15],100%
same,Pre-emergence efficacy at 320 g/ha against AMARE in %,Amaranthus retroflexus [16],100%
same,Pre-emergence efficacy at 320 g/ha against DIGSA in %,Digitaria sanguinalis [17],100%
same,Pre-emergence efficacy at 320 g/ha against ECHCG in %,Echinochloa crus-galli [18],100%
same,Pre-emergence efficacy at 320 g/ha against KCHSC in %,Kochia scoparia [19],100%
same,Pre-emergence efficacy at 320 g/ha against POAAN in %,Poa annua,100%
same,Pre-emergence efficacy at 320 g/ha against SETVI in %,Setaria viridis [20],100%
same,Pre-emergence efficacy at 320 g/ha against STEME in %,Stellaria media [21],100%
same,Pre-emergence efficacy at 320 g/ha against VERPE in %,Veronica persica [22],100%
same,Pre-emergence efficacy at 80 g/ha against AMARE in %,Amaranthus retroflexus [23],90%
same,Pre-emergence efficacy at 80 g/ha against DIGSA in %,Digitaria sanguinalis [24],90%
same,Pre-emergence efficacy at 80 g/ha against POLCO in %,Polygonum convolvulus,90%
same,Pre-emergence efficacy against SETVI,Setaria viridis [25],90%
same,Pre-emergence efficacy against VIOTR,Viola tricolor [26],80%
